# Reference: ChEMBL document CHEMBL5303573, “Mapping human microbiome drug metabolism by gut bacteria and their genes” (Nature, 2019)
# Assay: The drug is tested on Clostridium ramosum strain: DSM1402 for biotransformation. The drug concentrations were measured before and after a 12-h incubation by liquid-chromatography-coupled mass spectrometry (LC–MS)
# Conditions: thomasclavelia ramosa, 2 µM
row,SMILES,Bacterial Biotransformation
1,C=CCN1CC[C@]23c4c5ccc(O)c4O[C@H]2C(=O)CC[C@@]3(O)[C@H]1C5 [NALOXONE],Compound NOT metabolized
2,COC(=O)Nc1nc2ccc(C(=O)c3ccccc3)cc2[nH]1 [MEBENDAZOLE],Compound NOT metabolized
3,Cc1nc(Nc2ncc(C(=O)Nc3c(C)cccc3Cl)s2)cc(N2CCN(CCO)CC2)n1.O [DASATINIB],Compound NOT metabolized

# Conditions: bacteroides fragilis, 12 h, 2 µM
# Description: The drug is tested on Bacteroides fragilis strain: NCTC 9343 for biotransformation. The drug concentrations were measured before and after a 12-h incubation by liquid-chromatography-coupled mass spectrometry (LC–MS)
row,SMILES,Bacterial Biotransformation
1,C=CCN1CC[C@]23c4c5ccc(O)c4O[C@H]2C(=O)CC[C@@]3(O)[C@H]1C5 [NALOXONE],Compound metabolized
2,COC(=O)Nc1nc2ccc(C(=O)c3ccccc3)cc2[nH]1 [MEBENDAZOLE],Compound metabolized
3,Cc1nc(Nc2ncc(C(=O)Nc3c(C)cccc3Cl)s2)cc(N2CCN(CCO)CC2)n1.O [DASATINIB],Compound metabolized

# Assay: The drug is tested on Ruminococcus gnavus strain: ATCC29149 for biotransformation. The drug concentrations were measured before and after a 12-h incubation by liquid-chromatography-coupled mass spectrometry (LC–MS)
# Conditions: mediterraneibacter gnavus, 2 µM
row,SMILES,Bacterial Biotransformation
1,C=CCN1CC[C@]23c4c5ccc(O)c4O[C@H]2C(=O)CC[C@@]3(O)[C@H]1C5 [NALOXONE],Compound NOT metabolized
2,COC(=O)Nc1nc2ccc(C(=O)c3ccccc3)cc2[nH]1 [MEBENDAZOLE],Compound NOT metabolized
3,Cc1nc(Nc2ncc(C(=O)Nc3c(C)cccc3Cl)s2)cc(N2CCN(CCO)CC2)n1.O [DASATINIB],Compound NOT metabolized

# Assay: The drug is tested on Bacteroides finegoldii strain: DSM17565 for biotransformation. The drug concentrations were measured before and after a 12-h incubation by liquid-chromatography-coupled mass spectrometry (LC–MS)
# Conditions: 2 µM
row,SMILES,Bacterial Biotransformation
1,C=CCN1CC[C@]23c4c5ccc(O)c4O[C@H]2C(=O)CC[C@@]3(O)[C@H]1C5 [NALOXONE],Compound NOT metabolized
2,Cc1nc(Nc2ncc(C(=O)Nc3c(C)cccc3Cl)s2)cc(N2CCN(CCO)CC2)n1.O [DASATINIB],Compound metabolized

# Conditions: roseburia intestinalis, 12 h, 2 µM
# Description: The drug is tested on Roseburia intestinalis strain: L1-82 for biotransformation. The drug concentrations were measured before and after a 12-h incubation by liquid-chromatography-coupled mass spectrometry (LC–MS)
row,SMILES,Bacterial Biotransformation
1,C=CCN1CC[C@]23c4c5ccc(O)c4O[C@H]2C(=O)CC[C@@]3(O)[C@H]1C5 [NALOXONE],Compound metabolized
2,COC(=O)Nc1nc2ccc(C(=O)c3ccccc3)cc2[nH]1 [MEBENDAZOLE],Compound NOT metabolized

# Assay: The drug is tested on Eubacterium hallii strain: DSM3353 for biotransformation. The drug concentrations were measured before and after a 12-h incubation by liquid-chromatography-coupled mass spectrometry (LC–MS)
# Conditions: anaerobutyricum hallii, 2 µM
row,SMILES,Bacterial Biotransformation
1,C=CCN1CC[C@]23c4c5ccc(O)c4O[C@H]2C(=O)CC[C@@]3(O)[C@H]1C5 [NALOXONE],Compound NOT metabolized
2,COC(=O)Nc1nc2ccc(C(=O)c3ccccc3)cc2[nH]1 [MEBENDAZOLE],Compound NOT metabolized

# Conditions: bacteroides thetaiotaomicron, 12 h, 2 µM
# Description: The drug is tested on Bacteroides thetaiotaomicron strain: 3731 for biotransformation. The drug concentrations were measured before and after a 12-h incubation by liquid-chromatography-coupled mass spectrometry (LC–MS)
row,SMILES,Bacterial Biotransformation
1,C=CCN1CC[C@]23c4c5ccc(O)c4O[C@H]2C(=O)CC[C@@]3(O)[C@H]1C5 [NALOXONE],Compound metabolized
2,COC(=O)Nc1nc2ccc(C(=O)c3ccccc3)cc2[nH]1 [MEBENDAZOLE],Compound NOT metabolized
3,Cc1nc(Nc2ncc(C(=O)Nc3c(C)cccc3Cl)s2)cc(N2CCN(CCO)CC2)n1.O [DASATINIB],Compound NOT metabolized

# Assay: The drug is tested on Bacteroides sp. WH2 strain: WH2 for biotransformation. The drug concentrations were measured before and after a 12-h incubation by liquid-chromatography-coupled mass spectrometry (LC–MS)
# Conditions: bacteroides sp. wh2, 12 h, 2 µM
row,SMILES,Bacterial Biotransformation
1,C=CCN1CC[C@]23c4c5ccc(O)c4O[C@H]2C(=O)CC[C@@]3(O)[C@H]1C5 [NALOXONE],Compound NOT metabolized
2,COC(=O)Nc1nc2ccc(C(=O)c3ccccc3)cc2[nH]1 [MEBENDAZOLE],Compound NOT metabolized
3,Cc1nc(Nc2ncc(C(=O)Nc3c(C)cccc3Cl)s2)cc(N2CCN(CCO)CC2)n1.O [DASATINIB],Compound NOT metabolized

# Assay: The drug is tested on Anaerotruncus colihominis strain: DSM17241 for biotransformation. The drug concentrations were measured before and after a 12-h incubation by liquid-chromatography-coupled mass spectrometry (LC–MS)
# Conditions: 2 µM
row,SMILES,Bacterial Biotransformation
1,C=CCN1CC[C@]23c4c5ccc(O)c4O[C@H]2C(=O)CC[C@@]3(O)[C@H]1C5 [NALOXONE],Compound NOT metabolized
2,COC(=O)Nc1nc2ccc(C(=O)c3ccccc3)cc2[nH]1 [MEBENDAZOLE],Compound NOT metabolized
3,Cc1nc(Nc2ncc(C(=O)Nc3c(C)cccc3Cl)s2)cc(N2CCN(CCO)CC2)n1.O [DASATINIB],Compound metabolized

# Assay: The drug is tested on Bifidobacterium ruminantium strain: fecal isolate for biotransformation. The drug concentrations were measured before and after a 12-h incubation by liquid-chromatography-coupled mass spectrometry (LC–MS)
# Conditions: 2 µM
row,SMILES,Bacterial Biotransformation
1,C=CCN1CC[C@]23c4c5ccc(O)c4O[C@H]2C(=O)CC[C@@]3(O)[C@H]1C5 [NALOXONE],Compound NOT metabolized
2,COC(=O)Nc1nc2ccc(C(=O)c3ccccc3)cc2[nH]1 [MEBENDAZOLE],Compound metabolized
3,Cc1nc(Nc2ncc(C(=O)Nc3c(C)cccc3Cl)s2)cc(N2CCN(CCO)CC2)n1.O [DASATINIB],Compound metabolized

# Assay: The drug is tested on Bacteroides dorei strain: DSM17855 for biotransformation. The drug concentrations were measured before and after a 12-h incubation by liquid-chromatography-coupled mass spectrometry (LC–MS)
# Conditions: phocaeicola dorei, 2 µM
row,SMILES,Bacterial Biotransformation
1,C=CCN1CC[C@]23c4c5ccc(O)c4O[C@H]2C(=O)CC[C@@]3(O)[C@H]1C5 [NALOXONE],Compound metabolized
2,COC(=O)Nc1nc2ccc(C(=O)c3ccccc3)cc2[nH]1 [MEBENDAZOLE],Compound metabolized
3,Cc1nc(Nc2ncc(C(=O)Nc3c(C)cccc3Cl)s2)cc(N2CCN(CCO)CC2)n1.O [DASATINIB],Compound metabolized

# Conditions: bacteroides intestinalis, 12 h, 2 µM
# Description: The drug is tested on Bacteroides intestinalis strain: DSM17393 for biotransformation. The drug concentrations were measured before and after a 12-h incubation by liquid-chromatography-coupled mass spectrometry (LC–MS)
row,SMILES,Bacterial Biotransformation
1,COC(=O)Nc1nc2ccc(C(=O)c3ccccc3)cc2[nH]1 [MEBENDAZOLE],Compound NOT metabolized
2,Cc1nc(Nc2ncc(C(=O)Nc3c(C)cccc3Cl)s2)cc(N2CCN(CCO)CC2)n1.O [DASATINIB],Compound metabolized

# Assay: The drug is tested on Providencia stuartii strain: ATCC25827 for biotransformation. The drug concentrations were measured before and after a 12-h incubation by liquid-chromatography-coupled mass spectrometry (LC–MS)
# Conditions: 2 µM
row,SMILES,Bacterial Biotransformation
1,C=CCN1CC[C@]23c4c5ccc(O)c4O[C@H]2C(=O)CC[C@@]3(O)[C@H]1C5 [NALOXONE],Compound NOT metabolized
2,Cc1nc(Nc2ncc(C(=O)Nc3c(C)cccc3Cl)s2)cc(N2CCN(CCO)CC2)n1.O [DASATINIB],Compound NOT metabolized

# Assay: The drug is tested on Eubacterium ventriosum strain: ATCC27560 for biotransformation. The drug concentrations were measured before and after a 12-h incubation by liquid-chromatography-coupled mass spectrometry (LC–MS)
# Assay type: ADME
# Parameters: dose 2 uM, timepoint 0 vs 12 hours
# Conditions: 2 µM
row,SMILES,Bacterial Biotransformation
1,C=CCN1CC[C@]23c4c5ccc(O)c4O[C@H]2C(=O)CC[C@@]3(O)[C@H]1C5 [NALOXONE],Compound NOT metabolized
2,COC(=O)Nc1nc2ccc(C(=O)c3ccccc3)cc2[nH]1 [MEBENDAZOLE],Compound NOT metabolized
3,Cc1nc(Nc2ncc(C(=O)Nc3c(C)cccc3Cl)s2)cc(N2CCN(CCO)CC2)n1.O [DASATINIB],Compound NOT metabolized

# Assay: The drug is tested on Collinsella aerofaciens strain: ATCC25986 for biotransformation. The drug concentrations were measured before and after a 12-h incubation by liquid-chromatography-coupled mass spectrometry (LC–MS)
# Conditions: 2 µM
row,SMILES,Bacterial Biotransformation
1,C=CCN1CC[C@]23c4c5ccc(O)c4O[C@H]2C(=O)CC[C@@]3(O)[C@H]1C5 [NALOXONE],Compound NOT metabolized
2,Cc1nc(Nc2ncc(C(=O)Nc3c(C)cccc3Cl)s2)cc(N2CCN(CCO)CC2)n1.O [DASATINIB],Compound NOT metabolized

# Conditions: akkermansia muciniphila, 12 h, 2 µM
# Description: The drug is tested on Akkermansia muciniphila strain: ATCC BAA-835 for biotransformation. The drug concentrations were measured before and after a 12-h incubation by liquid-chromatography-coupled mass spectrometry (LC–MS)
row,SMILES,Bacterial Biotransformation
1,C=CCN1CC[C@]23c4c5ccc(O)c4O[C@H]2C(=O)CC[C@@]3(O)[C@H]1C5 [NALOXONE],Compound metabolized
2,COC(=O)Nc1nc2ccc(C(=O)c3ccccc3)cc2[nH]1 [MEBENDAZOLE],Compound NOT metabolized
3,Cc1nc(Nc2ncc(C(=O)Nc3c(C)cccc3Cl)s2)cc(N2CCN(CCO)CC2)n1.O [DASATINIB],Compound metabolized

# Conditions: limosilactobacillus reuteri cf48-3a, 12 h, 2 µM
# Description: The drug is tested on Lactobacillus reuteri CF48-3A strain: BEI HM-102 for biotransformation. The drug concentrations were measured before and after a 12-h incubation by liquid-chromatography-coupled mass spectrometry (LC–MS)
row,SMILES,Bacterial Biotransformation
1,C=CCN1CC[C@]23c4c5ccc(O)c4O[C@H]2C(=O)CC[C@@]3(O)[C@H]1C5 [NALOXONE],Compound metabolized
2,Cc1nc(Nc2ncc(C(=O)Nc3c(C)cccc3Cl)s2)cc(N2CCN(CCO)CC2)n1.O [DASATINIB],Compound metabolized

# Assay: The drug is tested on Bacteroides xylanisolvens strain: DSM18836 for biotransformation. The drug concentrations were measured before and after a 12-h incubation by liquid-chromatography-coupled mass spectrometry (LC–MS)
# Conditions: 2 µM
row,SMILES,Bacterial Biotransformation
1,C=CCN1CC[C@]23c4c5ccc(O)c4O[C@H]2C(=O)CC[C@@]3(O)[C@H]1C5 [NALOXONE],Compound metabolized
2,COC(=O)Nc1nc2ccc(C(=O)c3ccccc3)cc2[nH]1 [MEBENDAZOLE],Compound metabolized
3,Cc1nc(Nc2ncc(C(=O)Nc3c(C)cccc3Cl)s2)cc(N2CCN(CCO)CC2)n1.O [DASATINIB],Compound NOT metabolized

# Assay: The drug is tested on Bifidobacterium longum subsp. Infantis strain: CCUG52486 for biotransformation. The drug concentrations were measured before and after a 12-h incubation by liquid-chromatography-coupled mass spectrometry (LC–MS)
# Conditions: 2 µM
row,SMILES,Bacterial Biotransformation
1,C=CCN1CC[C@]23c4c5ccc(O)c4O[C@H]2C(=O)CC[C@@]3(O)[C@H]1C5 [NALOXONE],Compound NOT metabolized
2,COC(=O)Nc1nc2ccc(C(=O)c3ccccc3)cc2[nH]1 [MEBENDAZOLE],Compound NOT metabolized
3,Cc1nc(Nc2ncc(C(=O)Nc3c(C)cccc3Cl)s2)cc(N2CCN(CCO)CC2)n1.O [DASATINIB],Compound NOT metabolized
